Measured values published in publication PMC10458458, “Characterization of Anticancer Effects of the Analogs of DJ4, a Novel Selective Inhibitor of ROCK and MRCK Kinases” (Pharmaceuticals, 2023).

Experiments:
Assay in all cases: NCI-60 screen (SRB)
Format in all cases: cell-based, human
ACHN = ACHN (Renal Cancer), 10 µM, 48 h; negative = cell death vs time zero
Excerpt: (§1) The selected active compounds were screened at NCI, as a part of In Vitro Cell Line Screening Project (IVCLSP), for their effect on cell growth in 60 different cancer cell lines. The 60 human cancer cell line panel included leukemia, melanoma, non-small cell lung cancer, colon, central nervous system (CNS), ovarian, renal, prostate, and breast cancer cell lines. The detailed procedure and applications of NCI-60 cell line screening can be found at https://dtp.cancer.gov/discovery_development/nci-60/default.htm (accessed on 9 January 2023). Briefly, cells were plated in 96-well plates and incubated for 24 h. One set of cells was fixed with trichloroacetic acid at time 0 h (Tz), and SRB (sulphorhodamine B) assays were performed to quantify the cells. The remaining set of cells were treated with 10 µM single concentration of each compound and incubated for 48 h (Te) after which the cells were fixed, and the SRB assays were performed. Data are presented as percent growth relative to the control as 100% according to the following calculations:
(§2) When Te >/= Tz. Growth(%)=Te−Tz/C−Tz∗100 and when Te < Tz. (1) Growth(%)=Te−Tz/Tz∗100
(§3) Values between 0–100 indicate cell growth, zero (0) indicates no cell growth, values < 0 indicate cell death.

CAKI-1 = CAKI-1 (Renal Cancer), 10 µM, 48 h; negative = cell death vs time zero
Excerpt: as §1, §2, §3

EKVX = EKVX (Non-Small Cell Lung Cancer), 10 µM, 48 h; negative = cell death vs time zero
Excerpt: as §1, §2, §3

HCT-116 = HCT-116 (Colon Cancer), 10 µM, 48 h; negative = cell death vs time zero
Excerpt: as §1, §2, §3

HCT-15 = HCT-15 (Colon Cancer), 10 µM, 48 h; negative = cell death vs time zero
Excerpt: as §1, §2, §3

HL-60(TB) = HL-60(TB) (Leukemia), 10 µM, 48 h; negative = cell death vs time zero
Excerpt: as §1, §2, §3

HT29 = HT29 (Colon Cancer), 10 µM, 48 h; negative = cell death vs time zero
Excerpt: as §1, §2, §3

K-562 = conditions: 10 µM, 48 h; for percent cell growth: K-562 (Leukemia), negative = cell death vs time zero; for increase in cell number: K-562 (leukemia)
Excerpt: as §1, §2, §3

KM12 = KM12 (Colon Cancer), 10 µM, 48 h; negative = cell death vs time zero
Excerpt: as §1, §2, §3

M14 = M14 (Melanoma), 10 µM, 48 h; negative = cell death vs time zero
Excerpt: as §1, §2, §3

MDA-MB-435 = MDA-MB-435 (Melanoma), 10 µM, 48 h; negative = cell death vs time zero
Excerpt: as §1, §2, §3

MDA-MB-468 = MDA-MB-468 (Breast Cancer), 10 µM, 48 h; negative = cell death vs time zero
Excerpt: as §1, §2, §3

NCI-H226 = NCI-H226 (Non-Small Cell Lung Cancer), 10 µM, 48 h; negative = cell death vs time zero
Excerpt: as §1, §2, §3

NCI-H460 = NCI-H460 (Non-Small Cell Lung Cancer), 10 µM, 48 h; negative = cell death vs time zero
Excerpt: as §1, §2, §3

NCI-H522 = NCI-H522 (Non-Small Cell Lung Cancer), 10 µM, 48 h; negative = cell death vs time zero
Excerpt: as §1, §2, §3

NCI/ADR-RES = conditions: for percent cell growth: NCI/ADR-RES (Ovarian Cancer), negative = cell death vs time zero; for percent cell growth / increase in cell number: 10 µM, 48 h; for increase in cell number: NCI/ADR-RES (ovarian)
Excerpt: as §1, §2, §3

OVCAR-4 = OVCAR-4 (Ovarian Cancer), 10 µM, 48 h; negative = cell death vs time zero
Excerpt: as §1, §2, §3

OVCAR-5 = OVCAR-5 (Ovarian Cancer), 10 µM, 48 h; negative = cell death vs time zero
Excerpt: as §1, §2, §3

PC-3 = PC-3 (Prostate Cancer), 10 µM, 48 h; negative = cell death vs time zero
Excerpt: as §1, §2, §3

SF-268 = SF-268 (CNS Cancer), 10 µM, 48 h; negative = cell death vs time zero
Excerpt: as §1, §2, §3

SF-295 = SF-295 (CNS Cancer), 10 µM, 48 h; negative = cell death vs time zero
Excerpt: as §1, §2, §3

SF-539 = conditions: 10 µM, 48 h; for percent cell growth: SF-539 (CNS Cancer), negative = cell death vs time zero
Excerpt: as §1, §2, §3

SN12C = SN12C (Renal Cancer), 10 µM, 48 h; negative = cell death vs time zero
Excerpt: as §1, §2, §3

SNB-75 = conditions: 10 µM, 48 h; for percent cell growth: SNB-75 (CNS Cancer), negative = cell death vs time zero
Excerpt: as §1, §2, §3

SR = SR (Leukemia), 10 µM, 48 h; negative = cell death vs time zero
Excerpt: as §1, §2, §3

T-47D = T-47D (Breast Cancer), 10 µM, 48 h; negative = cell death vs time zero
Excerpt: as §1, §2, §3

UO-31 = UO-31 (Renal Cancer), 10 µM, 48 h; negative = cell death vs time zero
Excerpt: as §1, §2, §3

| Compound | percent cell growth (ACHN) | percent cell growth (CAKI-1) | percent cell growth (EKVX) | percent cell growth (HCT-116) | percent cell growth (HCT-15) | percent cell growth (HL-60(TB)) | percent cell growth (HT29) | percent cell growth (K-562) | percent cell growth (KM12) | percent cell growth (M14) | percent cell growth (MDA-MB-435) | percent cell growth (MDA-MB-468) | percent cell growth (NCI-H226) | percent cell growth (NCI-H460) | percent cell growth (NCI-H522) | percent cell growth (NCI/ADR-RES) | percent cell growth (OVCAR-4) | percent cell growth (OVCAR-5) | percent cell growth (PC-3) | percent cell growth (SF-268) | other results |
| --- | --- | --- | --- | --- | --- | --- | --- | --- | --- | --- | --- | --- | --- | --- | --- | --- | --- | --- | --- | --- | --- |
| Cl.O=C1NC(=NCCc2ccccc2)SC1=Cc1c[nH]c2ncccc12 (mixture of isomers) [DJ4-HCl] | −12.0% | 54.8% | 40.9% | 5.8% | 33.5% | −6.6% | 27.8% | 28.5% | 9.3% | 31.7% | 18.5% | −2.1% | 22.4% | 15.1% | 4.3% | 58.4% | 32.3% | 18.1% | 19.2% | 8.9% | percent cell growth (SF-295): 18.7%; percent cell growth (SF-539): −37.2%; percent cell growth (SN12C): 33.5%; percent cell growth (SNB-75): −13.3%; percent cell growth (SR): −1.5%; percent cell growth (T-47D): −1.3%; percent cell growth (UO-31): 36.6% |
| O=C1N/C(=N\CCc2ccccc2)S/C1=C/c1c[nH]c2ncccc12 [DJ4] | 16.0% | 37.4% | 46.0% | 9.7% | 36.5% | 6.8% | 30.6% | 29.9% | 13.1% | 29.9% | 21.0% | −14.5% | 3.3% | 14.1% | 26.6% | 72.9% | 23.8% | 37.8% | 25.9% | 10.4% | IC50 (NCI/ADR-RES; Homo sapiens, NCI/ADR-RES ovarian cancer cell line, NCI-60 screen): > 10 µM; percent cell growth (SF-295): 22.6%; percent cell growth (SF-539): 0.4%; percent cell growth (SN12C): 15.9%; percent cell growth (SNB-75): −10.9%; percent cell growth (SR): 5.6%; percent cell growth (T-47D): 2.6%; percent cell growth (UO-31): 25.2% |
| C=CC/N=C1\NC(=O)/C(=C\c2c[nH]c3ncccc23)S1 [DJ-Allyl] | −1.2% | 30.2% | 30.5% | 6.3% | 24.7% | −14.5% | 26.4% | 42.1% | 7.9% | 24.5% | 21.1% | 1.0% | 10.7% | 2.2% | −5.3% | 42.1% | 34.7% | 5.3% | 12.6% | −3.3% | increase in cell number (K-562): ~ 40%; increase in cell number (NCI/ADR-RES): ~ 40%; percent cell growth (SF-295): 13.0%; percent cell growth (SF-539): −66.2%; reduction in cell number (SF-539; SF-539 (CNS)): 60%; percent cell growth (SN12C): 24.0%; percent cell growth (SNB-75): −67.3%; reduction in cell number (SNB-75; SNB-75 (CNS)): 60%; percent cell growth (SR): −9.5%; percent cell growth (T-47D): −8.7%; percent cell growth (UO-31): 3.1% |
| CC/N=C1\NC(=O)/C(=C\c2c[nH]c3ncccc23)S1 [DJE4] | 0.7% | 20.6% | 14.1% | 4.0% | 16.0% | −22.4% | 4.3% | 26.3% | 6.2% | 0.7% | −0.8% | −34.7% | 10.8% | 2.4% | −28.6% | 29.7% | 19.5% | 8.7% | 2.3% | −5.8% | increase in cell number (K-562): 26%; increase in cell number (NCI/ADR-RES): 29%; percent cell growth (SF-295): 5.0%; percent cell growth (SF-539): −64.2%; percent cell growth (SN12C): 12.6%; percent cell growth (SNB-75): −71.8%; percent cell growth (SR): 0.4%; percent cell growth (T-47D): −9.7%; percent cell growth (UO-31): 7.5% |
